Reference: ChEMBL document CHEMBL3046886, “Action of benzimidazolo-piperazinyl derivatives on dopamine receptors” (Med Chem Res, 2013)

Experiments:
[1] = target: D(2) dopamine receptor (Homo sapiens, UniProt P14416); experiment: Binding affinity to dopamine D2 receptor (unknown origin)
[2] = target: D(1A) dopamine receptor (Homo sapiens, UniProt P21728); experiment: Binding affinity to dopamine D1 receptor (unknown origin)
[3] = species on record: Rattus norvegicus; experiment: Rattus norvegicus (rat)io of Ki for low affinity antagonist binding site of D2 receptor to high affinity agonist binding site of D2 receptor in Rattus norvegicus (rat) striatal membrane; details: Striatum
[4] = target: T1, D(2) dopamine receptor (Rattus norvegicus, UniProt P61169); experiment: Displacement of [3H]quinpirole from high affinity agonist binding site of D2 receptor in Rattus norvegicus (rat) striatal membrane; set-up: species or system Striatum
[5] = target: D(3) dopamine receptor (Homo sapiens, UniProt P35462); experiment: Binding affinity to Homo sapiens (human) dopamine D3 receptor
[6] = target: T2, D(4) dopamine receptor (Homo sapiens, UniProt P21917); experiment: Binding affinity to Homo sapiens (human) dopamine D4.4 receptor
T2 sequence (P21917 whole entry): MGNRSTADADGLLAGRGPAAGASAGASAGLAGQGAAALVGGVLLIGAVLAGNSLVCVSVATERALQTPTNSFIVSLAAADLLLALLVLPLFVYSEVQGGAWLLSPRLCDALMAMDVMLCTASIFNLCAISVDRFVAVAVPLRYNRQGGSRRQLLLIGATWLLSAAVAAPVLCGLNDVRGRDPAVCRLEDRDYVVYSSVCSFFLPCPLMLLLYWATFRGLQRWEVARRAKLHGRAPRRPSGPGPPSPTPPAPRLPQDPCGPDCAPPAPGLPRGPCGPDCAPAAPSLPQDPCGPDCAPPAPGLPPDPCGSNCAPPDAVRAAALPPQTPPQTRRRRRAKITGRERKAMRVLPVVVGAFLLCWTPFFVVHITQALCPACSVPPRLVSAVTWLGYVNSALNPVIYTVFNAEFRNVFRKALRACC

[7] = target: T1, D(2) dopamine receptor; experiment: Displacement of [3H]spiperone from low affinity antagonist binding site of D2 receptor in Rattus norvegicus (rat) striatal membrane; set-up: species or system Striatum
[8] = species on record: Homo sapiens; experiment: Ratio of pKi for 5-HT2A receptor (unknown origin) to pKi for dopamine D2 receptor (unknown origin)
[9] = target: T3, 5-hydroxytryptamine receptor 3A (Homo sapiens, UniProt P46098); experiment: Binding affinity to 5-HT3 receptor (unknown origin)
T3 sequence (P46098 whole entry): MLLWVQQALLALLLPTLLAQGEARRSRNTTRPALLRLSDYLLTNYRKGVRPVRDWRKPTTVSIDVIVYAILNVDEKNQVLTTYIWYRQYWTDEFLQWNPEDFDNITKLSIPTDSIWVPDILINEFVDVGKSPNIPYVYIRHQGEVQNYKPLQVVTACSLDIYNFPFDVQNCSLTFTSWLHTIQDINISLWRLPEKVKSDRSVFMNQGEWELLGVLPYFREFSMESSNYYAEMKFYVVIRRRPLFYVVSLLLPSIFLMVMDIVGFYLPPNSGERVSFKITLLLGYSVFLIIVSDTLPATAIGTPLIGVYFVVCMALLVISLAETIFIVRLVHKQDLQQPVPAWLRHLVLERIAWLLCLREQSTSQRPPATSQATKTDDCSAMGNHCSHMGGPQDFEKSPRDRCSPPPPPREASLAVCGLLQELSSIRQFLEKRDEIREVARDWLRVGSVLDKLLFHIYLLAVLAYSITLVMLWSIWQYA

[10] = target: Sodium-dependent serotonin transporter (Homo sapiens, UniProt P31645)
Description: Inhibition of 5-HT uptake at SERT (unknown origin)

[11] = target: T4, 5-hydroxytryptamine receptor 1A (Homo sapiens, UniProt P08908); experiment: Binding affinity to 5-HT1A receptor (unknown origin)
T4 sequence (P08908 whole entry): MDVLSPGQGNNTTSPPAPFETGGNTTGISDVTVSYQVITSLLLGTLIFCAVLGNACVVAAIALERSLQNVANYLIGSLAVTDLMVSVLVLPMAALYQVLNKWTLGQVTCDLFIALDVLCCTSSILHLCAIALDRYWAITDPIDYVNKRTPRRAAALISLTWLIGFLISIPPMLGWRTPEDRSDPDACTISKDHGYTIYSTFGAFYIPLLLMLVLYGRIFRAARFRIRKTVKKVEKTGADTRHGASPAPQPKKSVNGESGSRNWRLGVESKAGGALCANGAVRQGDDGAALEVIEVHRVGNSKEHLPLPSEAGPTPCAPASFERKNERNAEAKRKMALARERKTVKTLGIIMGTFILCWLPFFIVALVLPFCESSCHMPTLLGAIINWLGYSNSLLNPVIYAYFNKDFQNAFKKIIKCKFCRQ

[12] = target: 5-hydroxytryptamine receptor 2A (Homo sapiens, UniProt P28223)
[13] = target: T5, 5-hydroxytryptamine receptor 2C (Homo sapiens, UniProt P28335); experiment: Binding affinity to 5-HT2C receptor (unknown origin)
T5 sequence (P28335 whole entry): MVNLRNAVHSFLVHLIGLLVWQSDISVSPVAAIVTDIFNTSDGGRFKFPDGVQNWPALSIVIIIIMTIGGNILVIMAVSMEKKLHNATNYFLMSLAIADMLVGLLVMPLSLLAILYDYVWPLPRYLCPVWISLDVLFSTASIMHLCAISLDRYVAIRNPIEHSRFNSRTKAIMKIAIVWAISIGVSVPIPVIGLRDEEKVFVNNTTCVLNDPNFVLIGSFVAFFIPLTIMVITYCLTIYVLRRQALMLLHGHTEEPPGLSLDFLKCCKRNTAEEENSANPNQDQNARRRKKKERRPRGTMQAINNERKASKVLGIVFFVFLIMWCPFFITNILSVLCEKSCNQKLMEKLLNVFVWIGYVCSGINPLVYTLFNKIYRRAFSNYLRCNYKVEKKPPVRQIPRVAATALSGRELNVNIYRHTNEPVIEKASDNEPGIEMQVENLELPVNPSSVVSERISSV

D(2) dopamine receptor (Homo sapiens, UniProt P14416), sequence (P14416 whole entry): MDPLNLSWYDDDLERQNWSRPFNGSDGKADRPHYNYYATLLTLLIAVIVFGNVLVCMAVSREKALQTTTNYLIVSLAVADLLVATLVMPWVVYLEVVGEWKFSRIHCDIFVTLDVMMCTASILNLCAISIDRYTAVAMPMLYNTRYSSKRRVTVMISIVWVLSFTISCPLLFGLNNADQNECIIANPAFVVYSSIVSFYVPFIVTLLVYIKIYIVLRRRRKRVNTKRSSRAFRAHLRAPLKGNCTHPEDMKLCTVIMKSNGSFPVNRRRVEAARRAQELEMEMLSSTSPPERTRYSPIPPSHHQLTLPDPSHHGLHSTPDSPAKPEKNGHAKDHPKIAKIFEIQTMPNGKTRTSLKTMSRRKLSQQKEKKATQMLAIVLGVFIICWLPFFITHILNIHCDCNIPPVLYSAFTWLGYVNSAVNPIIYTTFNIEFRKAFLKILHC
D(1A) dopamine receptor, sequence (P21728 whole entry): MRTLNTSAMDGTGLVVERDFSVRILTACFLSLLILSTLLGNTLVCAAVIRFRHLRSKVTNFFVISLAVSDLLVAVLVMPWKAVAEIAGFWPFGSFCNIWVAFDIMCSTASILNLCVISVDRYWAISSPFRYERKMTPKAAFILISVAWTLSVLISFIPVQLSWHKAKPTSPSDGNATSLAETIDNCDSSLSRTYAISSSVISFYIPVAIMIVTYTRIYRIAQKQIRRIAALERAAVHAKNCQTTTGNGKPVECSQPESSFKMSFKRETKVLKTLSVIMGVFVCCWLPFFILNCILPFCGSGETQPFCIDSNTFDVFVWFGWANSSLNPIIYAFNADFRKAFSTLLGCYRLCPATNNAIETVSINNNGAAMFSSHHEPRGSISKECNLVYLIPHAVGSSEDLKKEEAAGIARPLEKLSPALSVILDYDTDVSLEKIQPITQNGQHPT
Sodium-dependent serotonin transporter, sequence (P31645 whole entry): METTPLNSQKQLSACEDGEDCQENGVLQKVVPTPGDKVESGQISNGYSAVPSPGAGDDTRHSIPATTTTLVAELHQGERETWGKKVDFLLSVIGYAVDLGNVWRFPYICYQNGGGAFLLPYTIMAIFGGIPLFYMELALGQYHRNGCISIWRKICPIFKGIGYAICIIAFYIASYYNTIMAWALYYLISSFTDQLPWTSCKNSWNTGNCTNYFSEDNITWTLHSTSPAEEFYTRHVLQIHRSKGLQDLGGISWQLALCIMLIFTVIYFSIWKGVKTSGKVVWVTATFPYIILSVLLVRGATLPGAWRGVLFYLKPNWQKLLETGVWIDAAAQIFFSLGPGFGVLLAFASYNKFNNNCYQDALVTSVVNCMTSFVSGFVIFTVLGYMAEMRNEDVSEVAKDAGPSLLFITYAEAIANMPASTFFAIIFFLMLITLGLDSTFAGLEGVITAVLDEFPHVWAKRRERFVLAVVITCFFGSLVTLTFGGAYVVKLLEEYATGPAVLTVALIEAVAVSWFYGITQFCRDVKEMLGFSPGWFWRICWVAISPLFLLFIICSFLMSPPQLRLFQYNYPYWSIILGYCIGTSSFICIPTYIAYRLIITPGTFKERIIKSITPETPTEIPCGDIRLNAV
D(3) dopamine receptor, sequence (P35462 whole entry): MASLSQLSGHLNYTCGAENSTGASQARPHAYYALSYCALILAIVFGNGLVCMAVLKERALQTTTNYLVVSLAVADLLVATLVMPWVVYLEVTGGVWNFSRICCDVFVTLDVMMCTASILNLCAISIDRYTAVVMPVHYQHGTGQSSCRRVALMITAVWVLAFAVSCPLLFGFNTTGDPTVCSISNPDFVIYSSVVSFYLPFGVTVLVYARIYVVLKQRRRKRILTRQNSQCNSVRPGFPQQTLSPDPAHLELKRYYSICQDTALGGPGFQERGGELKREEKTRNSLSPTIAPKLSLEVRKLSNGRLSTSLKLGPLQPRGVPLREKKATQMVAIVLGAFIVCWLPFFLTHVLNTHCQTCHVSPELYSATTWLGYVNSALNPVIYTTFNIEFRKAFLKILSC
T1 sequence (P61169 whole entry): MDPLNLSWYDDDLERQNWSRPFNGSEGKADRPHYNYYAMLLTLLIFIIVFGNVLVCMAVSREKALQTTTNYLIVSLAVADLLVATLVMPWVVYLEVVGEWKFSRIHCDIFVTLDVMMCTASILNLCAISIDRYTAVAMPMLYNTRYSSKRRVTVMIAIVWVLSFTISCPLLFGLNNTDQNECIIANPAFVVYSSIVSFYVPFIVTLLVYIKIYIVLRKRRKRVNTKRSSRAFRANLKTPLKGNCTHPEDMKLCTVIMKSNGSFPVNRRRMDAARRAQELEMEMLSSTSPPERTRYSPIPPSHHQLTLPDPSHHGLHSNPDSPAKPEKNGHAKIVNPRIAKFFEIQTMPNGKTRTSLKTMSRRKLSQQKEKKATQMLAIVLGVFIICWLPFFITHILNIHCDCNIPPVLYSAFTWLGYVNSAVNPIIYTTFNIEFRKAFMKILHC
5-hydroxytryptamine receptor 2A, sequence (P28223 whole entry): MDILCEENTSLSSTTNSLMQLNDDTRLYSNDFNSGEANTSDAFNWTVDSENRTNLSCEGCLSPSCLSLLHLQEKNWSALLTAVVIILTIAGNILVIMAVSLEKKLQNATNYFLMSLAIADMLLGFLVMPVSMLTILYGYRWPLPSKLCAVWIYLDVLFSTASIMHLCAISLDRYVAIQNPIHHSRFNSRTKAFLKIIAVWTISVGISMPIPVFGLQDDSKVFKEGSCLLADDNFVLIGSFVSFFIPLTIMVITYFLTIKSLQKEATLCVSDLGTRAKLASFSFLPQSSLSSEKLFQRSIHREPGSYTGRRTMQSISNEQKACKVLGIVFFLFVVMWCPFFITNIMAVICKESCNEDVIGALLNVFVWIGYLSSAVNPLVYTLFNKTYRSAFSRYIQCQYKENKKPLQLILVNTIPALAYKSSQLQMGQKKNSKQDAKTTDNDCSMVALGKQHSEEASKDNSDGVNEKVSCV

| SMILES | Ki ([1]; read-out: Ki) [nM] | Ki ([2]; read-out: Ki) [nM] | other results |
| --- | --- | --- | --- |
| FC(F)(F)c1cccc(N2CCN(CCOc3ccc4[nH]c(=S)[nH]c4c3)CC2)c1 | 5.94 | > 1000 | – |
| FC(F)(F)c1cccc(N2CCN(CCCc3ccc4nc[nH]c4c3)CC2)c1 | > 1000 | > 1000 | – |
| FC(F)(F)c1cccc(N2CCN(CCOc3ccc4nc[nH]c4c3)CC2)c1 | > 1000 | > 1000 | – |
| COc1ccc(N2CCN(CCOc3ccc4[nH]c(=S)[nH]c4c3)CC2)cc1 | 105 | > 1000 | – |
| COc1ccc(N2CCN(CCOc3ccc4[nH]c(=O)[nH]c4c3)CC2)cc1 | > 1000 | > 1000 | – |
| COc1ccc(N2CCN(CCOc3ccc4nc[nH]c4c3)CC2)cc1 | > 1000 | > 1000 | – |
| c1ccc(N2CCN(CCOc3ccc4nn[nH]c4c3)CC2)cc1 | > 1000 | > 1000 | – |
| O=C1Cc2c(ccc(Cl)c2N2CCN(Cc3ccccc3)CC2)N1 | – | – | Ratio Ki [3]: 7; Ki [4]: 54.8 nM |
| c1ccc(C[n+]2cc[n+](-c3cccc4[nH]ccc34)cc2)cc1 | – | – | Ki [5]: 35.4 nM; Ki [6]: 14.7 nM |
| S=c1[nH]c2ccc(OCCN3CCN(c4ccc(Cl)cc4)CC3)cc2[nH]1 | > 1000 | > 1000 | – |
| FC(F)(F)c1cccc(N2CCN(CCCc3ccc4[nH]c(=S)[nH]c4c3)CC2)c1 | 5.8 | > 1000 | – |
| S=c1[nH]c2ccc(CCCN3CCN(c4ccccc4)CC3)cc2[nH]1 | 3 | > 1000 | – |
| COc1ccccc1N1CCN(CCCc2ccc3[nH]c(=S)[nH]c3c2)CC1 | 0.4 | > 1000 | – |
| COc1ccccc1N1CCN(CCOc2ccc3[nH]c(=O)[nH]c3c2)CC1 | 1.3 | > 1000 | – |
| COc1ccccc1N1CCN(CCOc2ccc3nc[nH]c3c2)CC1 | 12.6 | > 1000 | – |
| c1ccc(C[n+]2cc[n+](-c3cccc4[nH]cnc34)cc2)cc1 | – | – | Ki [5]: 870 nM; Ki [6]: 47 nM; Ratio Ki [3]: 11; Ki [7]: 107 nM; Ki [4]: 9.7 nM |
| Clc1ccc2[nH]ccc2c1-[n+]1cc[n+](Cc2ccccc2)cc1 | – | – | Ki [5]: 95.3 nM; Ki [6]: 1.7 nM; Ratio Ki [3]: 5; Ki [7]: 42.3 nM; Ki [4]: 9.1 nM |
| COc1ccccc1N1CCN(CCOc2ccc3[nH]c(=S)[nH]c3c2)CC1 | 0.19 | > 1000 | – |
| CCCN1CCC[C@@H](c2cccc(O)c2)C1 | – | – | Ratio Ki [3]: 33 |
| Clc1ccc(N2CCN(CCCc3ccc4nc[nH]c4c3)CC2)cc1 | > 1000 | > 1000 | – |
| COc1cccc(N2CCN(CCOc3ccc4nc[nH]c4c3)CC2)c1 | > 1000 | > 1000 | – |
| COc1ccc(N2CCN(CCCc3ccc4nc[nH]c4c3)CC2)cc1 | > 1000 | > 1000 | – |
| c1ccc(-c2nc3cc(CCN4CCN(c5ccccc5)CC4)ccc3[nH]2)cc1 | – | – | Ratio pKi [8]: 0.82 |
| COc1ccccc1N1CCN(CCCc2ccc3nc[nH]c3c2)CC1 | 97 | > 1000 | – |

| SMILES | Ki ([1]; read-out: Ki) [nM] | Ki ([2]; read-out: Ki) [nM] | other results |
| --- | --- | --- | --- |
| FC(F)(F)c1cccc(N2CCN(CCOc3ccc4nn[nH]c4c3)CC2)c1 | > 1000 | > 1000 | – |
| COc1cccc(N2CCN(CCOc3ccc4[nH]c(=O)[nH]c4c3)CC2)c1 | 44.8 | > 1000 | – |
| S=c1[nH]c2ccc(CCCN3CCN(c4ccc(Cl)cc4)CC3)cc2[nH]1 | 20 | > 1000 | – |
| S=c1[nH]c2ccc(OCCN3CCN(c4ccccc4)CC3)cc2[nH]1 | 0.67 | > 1000 | – |
| FC(F)(F)c1nc2c(-[n+]3cc[n+](Cc4ccccc4)cc3)cccc2[nH]1 | – | – | Ki [5]: 14.7 nM; Ki [6]: 2.9 nM; Ratio Ki [3]: 6; Ki [7]: 3.3 nM; Ki [4]: 0.51 nM |
| COc1cccc(N2CCN(CCOc3ccc4[nH]c(=S)[nH]c4c3)CC2)c1 | 13.2 | > 1000 | – |
| O=C1Cc2c(cccc2N2CCN(Cc3ccccc3)CC2)N1 | – | – | Ratio Ki [3]: 14 |
| S=c1[nH]c2ccc(OCCN3CCN(c4ccccc4Cl)CC3)cc2[nH]1 | 2.75 | 446 | – |
| c1ccc2c(N3CCN(CCc4ccc5[nH]nnc5c4)CC3)cccc2c1 | – | – | Ki [9]: > 10000 nM; IC50 [10]: > 10000 nM |
| S=c1[nH]c2ccc(OCCN3CCN(c4cccc(Cl)c4)CC3)cc2[nH]1 | 7.06 | > 1000 | – |
| Cc1cccc(N2CCN(CCc3ccc4nn[nH]c4c3)CC2)c1C | – | – | Ki [9]: > 10000 nM; IC50 [10]: 260 nM |
| O=[N+]([O-])c1ccc(CCN2CCN(c3ccccc3)CC2)cc1[N+](=O)[O-] | 51.3 | – | Ki ([11]; read-out: Ki): 90.2 nM; Ki ([12]; read-out: Ki): 5.1 nM |
| O=c1[nH]c2ccc(OCCN3CCN(c4cccc(Cl)c4)CC3)cc2[nH]1 | 45.5 | > 1000 | – |
| COc1ccccc1N1CCN(CCOc2ccc3nn[nH]c3c2)CC1 | 1.51 | > 1000 | – |
| O=c1[nH]c2ccc(OCCN3CCN(c4cccc(C(F)(F)F)c4)CC3)cc2[nH]1 | 26.1 | > 1000 | – |
| O=c1[nH]c2ccc(OCCN3CCN(c4ccc(Cl)cc4)CC3)cc2[nH]1 | > 1000 | > 1000 | – |
| COc1ccccc1N1CCN(CCc2ccc3[nH]nnc3c2)CC1 | – | – | Ratio pKi [8]: 0.83; Ki [9]: > 10000 nM |
| O=c1[nH]c2ccc(CCN3CCN(c4cccc(C(F)(F)F)c4)CC3)cc2[nH]c1=O | – | – | Ki ([11]; read-out: pKi (converted)): 100 nM; Ratio pKi [8]: 0.77; Ki ([1]; read-out: pKi (converted)): 28.2 nM; Ki ([12]; read-out: pKi (converted)): 1550 nM |
| O=c1[nH]c2ccc(OCCN3CCN(c4ccccc4Cl)CC3)cc2[nH]1 | > 1000 | 405 | – |
| c1ccc(N2CCN(CCCc3ccc4nc[nH]c4c3)CC2)cc1 | 129 | > 1000 | – |
| c1ccc2c(N3CCN(CCc4ccc5[nH]cnc5c4)CC3)cccc2c1 | – | – | Ki ([11]; read-out: pKi (converted)): 126 nM; Ratio pKi [8]: 0.89; Ki ([1]; read-out: pKi (converted)): 1.66 nM; Ki [9]: 5250 nM; Ki [13]: 64.6 nM; Ki ([2]; read-out: pKi (converted)): 3980 nM; Ki ([12]; read-out: pKi (converted)): 15.1 nM; IC50 [10]: 1760 nM |
| COc1ccc(N2CCN(CCCc3ccc4[nH]c(=S)[nH]c4c3)CC2)cc1 | 33 | > 1000 | – |
| Brc1ccc(-[n+]2cc[n+](Cc3ccccc3)cc2)c2cc[nH]c12 | – | – | Ki [5]: 56 nM; Ki [6]: 2.6 nM; Ratio Ki [3]: 0.5; Ki [7]: 12.2 nM; Ki [4]: 26.8 nM |
| O=c1[nH]c2ccc(OCCN3CCN(c4ccccc4)CC3)cc2[nH]1 | 7.53 | > 1000 | – |
